The values that follow come from patent US20240218242A1, “COMPOUND, FLUORESCENT DYE, KIT, AND METHOD FOR DETECTING CELLS” (NATIONAL UNIVERSITY CORPORATION KOCHI UNIVERSITY, priority 2021, published 2024).

Bounds are passed on as bounds.

A short description of series [1]: Fluorescence spectrum measurement in lipid membrane (liposome). The class given is physicochemical. The settings on record: compound 2 μM, lipid 200 μM. The protocol: The fluorescence spectrum of the compound A obtained in Example 1 in a lipid membrane (liposome) was measured. More specifically, the fluorescence spectrum of the compound A in a liposome composed of 1,2-dioleoyl-sn-glycero-3-phosphocholine (DOPC) and sphingomyelin (SM)/cholesterol (Chol) was measured (compound A concentration: 2 μM, lipid concentration: 200 μM). The fluorescence spectrum measurement was carried out using the same instrument as that used in Example 2.

Series [2] relates to human keratinocyte K16 (P4). In words: Toxicity evaluation (MTT test). Type of series: cell-based. The note with it: 100 μM, 24 hours. The method, then:
The toxicity of fluorescence imaging of cells using the compound A obtained in Example 1 was evaluated. More specifically, the toxicity evaluation (MTT test) of the compound A to human keratinocyte K16 (P4) was performed. As a toxicity evaluation procedure, first, a medium containing the compound A at a maximum concentration of 100 μM (maximum DMSO concentration=0.5% v/v) was added to cells to prepare a 2-fold dilution series. After 24 hours, the medium was discarded and an MTT reagent ([…]) was added. After 3 hours, a 10% SDS reagent was added to the cells, and the absorbance at 570 nm was measured the next day.
In general terms: Tetrazolium assays rely on reduction of a dye to a coloured formazan, in cell work by metabolically active cells.

The nature of series [3]: Evaluation of light stability (fluorescence intensity over time under UV excitation). The class given is physicochemical. The settings on record: 3000 seconds after excitation by UV irradiation; toluene; 5 μM; excitation 378 nm; detection 483 nm. The protocol:
The light stability of the compound A obtained in Example 1 was evaluated.
The light stability of the compound A and that of a commercially available solvatochromic dye Laurdan were compared (solvent: toluene; each dye concentration: 5 μM; excitation wavelength: 378 nm; detection wavelength: 483 nm). Laurdan is a compound with a CAS number of 74515-25-6. The fluorescence spectrum measurement was carried out using the same instrument as that used in Example 2.

Series [4] has as its system human prostate cancer cells (PC3). In words: Confocal fluorescence imaging of stained cells. The class given is cell-based. The note with it: 500 nM, 30 minutes at room temperature; excitation 405 nm; green (490-590 nm) and red (655-755 nm) channels. The method, then: Fluorescence imaging of cells was performed using the compound A obtained in Example 1. More specifically, confocal fluorescence imaging of human prostate cancer cells (PC3) stained with the compound A of the Example was performed (compound A concentration: 500 nM; excitation wavelength: 405 nm).
For microscopic observation, a confocal scanning laser microscope (manufactured by Olympus Corporation, FV1000-D) was used. In the measurement, fluorescence was detected in a green (490-590 nm) channel and a red (655-755 nm) channel using a 405 nm laser light source.
As the human prostate cancer cells used for the observation, cultured cells were used. The compound A (500 nM) was added to the cultured cells, and the mixture was allowed to stand at room temperature for 30 minutes, and then imaging was performed.

Series [5] can be described thus: Photophysical properties (absorption spectrum, fluorescence spectrum, fluorescence quantum yield) in organic solvents. The class given is physicochemical. The settings on record: 5 μM. The protocol: The absorption spectrum and fluorescence spectrum in organic solvents of the compound A obtained in Example 1 were measured.
The absorption spectrum and the fluorescence spectrum were measured using a UV-Visible/NIR spectrophotometer (V-670 manufactured by JASCO Corporation) and a spectrofluorometer (FP6600 manufactured by JASCO Corporation), respectively. The fluorescence quantum yield was measured using an absolute PL quantum yield spectrometer (Hamamatsu Photonics K.K.: C 9920-02V). The concentration of the compound A was 5 μM for each solvent. For solvent species, toluene, dichloromethane, DMSO, and ethanol were used.
The absorption spectrum and fluorescence spectrum in organic solvents of the compound B obtained in Example 8 were measured.
The absorption spectrum and the fluorescence spectrum were measured using a UV-Visible/NIR spectrophotometer (V-670 manufactured by JASCO Corporation) and a spectrofluorometer (FP6600 manufactured by JASCO Corporation), respectively, in the same manner as in Example 2. The fluorescence quantum yield was measured using an absolute PL quantum yield spectrometer (Hamamatsu Photonics K.K.: C 9920-02V). The concentration of the compound B was 5 μM for each solvent. For solvent species, toluene, dichloromethane, DMSO, and ethanol were used.
The absorption spectrum and fluorescence spectrum in organic solvents of the compound C obtained in Example 10 were measured.
The absorption spectrum and the fluorescence spectrum were measured using a UV-Visible/NIR spectrophotometer (V-670 manufactured by JASCO Corporation) and a spectrofluorometer (FP6600 manufactured by JASCO Corporation), respectively, in the same manner as in Example 2. The fluorescence quantum yield was measured using an absolute PL quantum yield spectrometer (Hamamatsu Photonics K.K.: C 9920-02V). The concentration of the compound C was 5 μM for each solvent. For solvent species, toluene, dichloromethane, DMSO, and ethanol were used.

Series [6] concerns human skin tissue (frozen tissue). In words: Two-photon fluorescence imaging of stained human skin tissue. The settings on record: 10 μM; excitation 960 nm; in combination with clearing reagent (LUCID). The protocol: Human skin tissue (frozen tissue) imaging was performed using the compound A obtained in Example 1. More specifically, two-photon fluorescence imaging of human skin tissues (frozen tissues) stained with the compound A of the Example was performed (compound A concentration: 10 μM, excitation wavelength: 960 nm; a clearing reagent (LUCID) was used in combination.).
For microscopy, a two-photon microscope A1R MP+(NIKON) was used. In the measurement, 960 nm was used as a laser light source for excitation for the compound A. Scanning was performed to a depth of 100 μm of the sample. The three-dimensional reconstructed image is obtained by processing the obtained data with attached software.
Human skin tissues were embedded in paraffin and then cut out to prepare tissue sections. The preparation of the sections (thickness: 5 μm) was performed by the procedure usually performed in histopathological examination. For staining with the compound A dye, deparaffinization was performed by a conventional method, and then staining was performed by immersion in the aforementioned dye at room temperature for several days to one week. In practice, the tissues were sufficiently stained by immersion in the dye at room temperature for 2 to 3 days.

A word on the cell viability: it is a read-out of living cells in per cent, often relative to untreated cells. Read a high cell viability as less harm to the cells. As to `CCCC(=O)/C=C/c1ccc2ccc3c(N4CCCCC4)ccc4ccc1c2c43` [compound A], the Fluorescence quantum yield in series [1] (DOPC liposome) came out at 37%; in series [1] (SM/Chol liposome), 72%; in series [5] (DCM), 86%; in series [5] (DMSO) it was 79%; in series [5] (EtOH) it was 20%; in series [5] (Toluene) it was 82%. Further, the Maximum fluorescence wavelength in series [1] (DOPC liposome) is recorded as 603 nm; in series [1] (SM/Chol liposome), 577 nm; in series [5] (DCM), 615 nm; in series [5] (DMSO), 647 nm; in series [5] (EtOH), 691 nm; in series [5] (Toluene) it was 546 nm. This compound came in with a cell viability in series [2] of 93.9%. Further, in series [3], the “Fluorescence intensity (light stability)” value is on record as “the fluorescence intensity was maintained as it was”. Moreover, the “Fluorescence in cell membrane (plasma membrane) and oil droplets (lipid droplet)” value in series [4] was “strong fluorescence was observed in the green channel”. Further, the Maximum absorption wavelength in series [5] (DCM) came out at 427 nm; in series [5] (DMSO) it was 429 nm; in series [5] (EtOH), 427 nm; in series [5] (Toluene), 424 nm. Also, the Fluorescence solvatochromism entry in series [5] (toluene, dichloromethane, DMSO, ethanol) is reported as “fluorescence solvatochromism sensitive to solvent polarity was observed”. Moreover, in series [6], the “Staining of human skin tissue” value was “capable of strongly staining the membrane of each cell constituting the human skin tissue”.

As for `CCCCCCCCCCCC(=O)c1ccc2cc(N(C)C)ccc2c1` [Laurdan, reference compound], the “Fluorescence intensity (light stability)” value in series [3] is reported as at most 0.6.
